# Assays:
# [1] = test system: rats (male Spraque-Dawley (Harlan)); experiment: Radial arm maze task in rats, in vivo test for learning and memory; parameters: species or system rat; details: MK-801 0.1 mg/kg, i.p., compared to control (p<0.01)
# Method: The test was performed as previously described (Zhang, H.-T., Crissman, A. M., Dorairaj, N. R., Chandler, L. J., and O'Donnell, J. M., Neuropsychopharmacology, 2000, 23, 198-204.). Five days after initial housing, rats (male Spraque-Dawley (Harlan) weighing 250 to 350 g) were placed in the eight-arm radial maze (each arm was 60×10×12 cm high; the maze was elevated 70 cm above the floor) for acclimation for two days. Rats were then placed individually in the center of the maze for 5 minutes with food pellets placed close to the food wells, and then, the next day, in the wells at the end of the arms; 2 sessions a day were conducted. Next, four randomly selected arms were then baited with one pellet of food each. The rat was restricted to the center platform (26 cm in diameter) for 15 seconds and then allowed to move freely throughout the maze until it collected all pellets of food or 10 minutes passed, whichever came first. Four parameters were recorded: 1) working memory errors, i.e., entries into baited arms that had already been visited during the same trial; 2) reference memory errors, i.e., entries into unbaited arms; 3) total arm entries; and 4) the test duration (seconds), i.e., the time spent in the collection of all the pellets in the maze. […]
# (§1) All data were analyzed by analyses of variance (ANOVA); individual comparisons were made using Kewman-Keuls tests. […]
# [2] = test system: rat (Male Spraque-Dawley (Harlan)); experiment: Passive avoidance in rats, in vivo test for learning and memory; details: retention test 24 hours after electric shock; MK-801 0.1 mg/kg pretreatment compared to the vehicle (p<0.001)
# Method: The test was performed as previously described (Zhang, H.-T., Crissman, A. M., Dorairaj, N. R., Chandler, L. J., and O'Donnell, J. M., Neuropsychopharmacology, 2000, 23, 198-204.). The apparatus (Model E10-16SC, Coulbourn Instruments, Allentown, Pa.) consisted of a two-compartment chamber with an illuminated compartment connected to a darkened compartment by a guillotine door. The floor of the darkened compartment consisted of stainless steel rods through which an electric foot-shock could be delivered from a constant current source. All experimental groups were first habituated to the apparatus the day before the start of the experiment. During the training, the rat (Male Spraque-Dawley (Harlan) weighing 250 to 350 g) was placed in the illuminated compartment facing away from the closed guillotine door for 1 minute before the door was raised. The latency for entering the darkened compartment was recorded. After the rat entered the darkened compartment, the door was closed and a 0.5 mA electric shock was administered for 3 seconds. […] The latency for entering the darkened compartment was recorded for up to 180 seconds, at which time the trial was terminated.
# as §1
structure (smiles),measurement,setting,value
C[C@]12N[C@H](Cc3ccccc31)c1ccccc12 [MK-801],frequency of reference memory errors,[1],increased
same,frequency of working memory errors,[1],increased
same,latency for entering the darkened compartment,[2],markedly reduced

# Reference: US7335654B2, “Phosphodiesterase 4 inhibitors” (Memory Pharmaceuticals Corporation, priority 2002, dated 2008)
